Molecular target: Methionine aminopeptidase (Staphylococcus aureus (strain MW2), UniProt P0A079)
Experiment: MetAP Inhibition Assay
Details: pH 7.5; 22 °C
Procedure: The MetAP reaction with Co2+ as a cofactor is coupled to a prolyl aminopeptidase (ProAP) using Met-Pro-p-nitroanilide as substrate. MetAP-catalyzed cleavage of the N-terminal methionine produces prolyl-p-nitroanilide, which is rapidly hydrolyzed by ProAP to release a chromogenic product. This allows the MetAP reaction to be continuously monitored at 405 nm on a UVVIS spectrophotometer. The initial rate was calculated from the early part of the reaction progress curve (<5 min). Activity assays were performed in triplicate using eight to 16 concentrations of substrate or inhibitor.

Sequence of Methionine aminopeptidase (P0A079 whole entry): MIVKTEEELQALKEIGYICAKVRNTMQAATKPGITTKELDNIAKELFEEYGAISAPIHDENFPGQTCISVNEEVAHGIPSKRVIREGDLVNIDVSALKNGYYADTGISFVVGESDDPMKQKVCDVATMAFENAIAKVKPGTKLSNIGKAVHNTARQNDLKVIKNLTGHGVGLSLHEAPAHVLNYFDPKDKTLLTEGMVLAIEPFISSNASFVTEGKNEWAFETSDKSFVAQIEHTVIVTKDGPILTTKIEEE

Compound | IC50 [µM]
CSCC[C@H](N)C(=O)c1ccccn1 [(2S)-2-amino-4-(methylsulfanyl)-1-(pyridin-2-yl)butan-1-one] | 16
CSCC[C@H](N)C(=O)c1nccs1 [(2S)-2-amino-4-(methylsulfanyl)-1-(1,3-thiazol-2-yl)butan-1-one] | 19

Reference: BindingDB's records for doi:10.1021/jm034188j (Morphochem, 2004)
